In test [1] the test system is Human whole blood, IL-6 levels after TLR2 agonist lipoteichoic acid. The experiment in a line: IRAK4 Whole Blood Assay. To be noted: compounds 60 minutes at 37° C., lipoteichoic acid 10 μg/mL for 5 hours. It is filed as cell-based. The method, then: IRAK4 Whole Blood Assay Human whole blood containing the anti-coagulant ACD-A was plated in 384-well plate (25 μL/well) and incubated with compounds for 60 minutes at 37° C. in a 5% CO2 incubator. The blood was stimulated with a TLR2 agonist, 10 μg/mL final concentration of lipoteichoic acid (Invivogen, San Diego, CA) in 25 μL RPMI (Gibco) for 5 hours in a 5% CO2 incubator. At the end of the incubation, plates were centrifuged at 2300 rpm for 5 minutes. Supernatants were harvested and analyzed for IL-6 levels by Flow Cytometry beads assay (BD Biosciences, San Jose, CA).

A further test has as its target T1, IRAK4 (Homo sapiens, UniProt Q9NWZ3).
T1 sequence (Q9NWZ3 1-460): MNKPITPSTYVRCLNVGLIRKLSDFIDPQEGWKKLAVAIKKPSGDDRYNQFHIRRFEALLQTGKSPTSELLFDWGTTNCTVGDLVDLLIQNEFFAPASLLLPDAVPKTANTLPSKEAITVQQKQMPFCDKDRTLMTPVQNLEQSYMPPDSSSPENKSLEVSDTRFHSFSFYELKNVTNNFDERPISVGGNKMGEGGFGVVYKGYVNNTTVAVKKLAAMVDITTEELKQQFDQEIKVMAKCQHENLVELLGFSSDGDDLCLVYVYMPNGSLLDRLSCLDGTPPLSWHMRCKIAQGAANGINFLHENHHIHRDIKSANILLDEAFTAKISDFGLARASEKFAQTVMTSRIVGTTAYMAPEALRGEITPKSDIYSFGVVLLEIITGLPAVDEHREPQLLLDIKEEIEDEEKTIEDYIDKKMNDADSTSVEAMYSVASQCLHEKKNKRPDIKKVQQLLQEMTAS
Kind of test: IRAK4 Inhibition Assay. The class given is biochemical. The following applies: ATP 500 μM, IRAK4 0.6 nM, 60 min room temperature, Caliper LABCHIP 3000. The method, then: The assays were performed in U-bottom 384-well plates. […] The reaction was initiated by the combination of IRAK4 with substrates and test compounds. The reaction mixture was incubated at room temperature for 60 min. and terminated by adding 45 μL of 35 mM EDTA to each sample. The reaction mixture was analyzed on the Caliper LABCHIP® 3000 (Caliper, Hopkinton, MA) by electrophoretic separation of the fluorescent substrate and phosphorylated product. […] The final concentrations of reagents in the assays are ATP, 500 μM; FL-[…] peptide 1.5 μM; IRAK4, 0.6 nM; and DMSO, 1.6%.

[2] abbreviates: FL-IPTSPITTTYFFFKKK peptide […].

For the compound `CC[C@@H]1CC(=O)N[C@@H]1COc1nccc2cc(C(N)=O)c3ncnn3c12` [Example 46, 9-(((2S,3R)-3-ethyl-5-oxopyrrolidin-2-yl)methoxy)-[1,2,4]triazolo[1,5-a][1,7]naphthyridine-4-carboxamide], the IC50 (as a rule, the concentration needed to halve the response being measured) in test [1] was 1080 nM; at IRAK4 (FL-[…] peptide 1.5 μM), 9.7 nM.
Consider `CC[C@@H]1[C@H](F)C(=O)N[C@@H]1COc1cccc2cc(C(N)=O)c3nc(C)cn3c12` [Example 12, 9-(((2S,3S,4S)-3-ethyl-4-fluoro-5-oxopyrrolidin-2-yl)methoxy)-2-methylimidazo[1,2-a]quinoline-4-carboxamide], for which the IC50 turned out to be 10000 nM in test [1] and 2.2 nM on IRAK4 (setting [2]).
The matching figures for `CC[C@@H]1CC(=O)N[C@@H]1COc1cccc2cc(C(N)=O)c3nc(C)cn3c12` [Example 11, 9-(((2S,3R)-3-ethyl-5-oxopyrrolidin-2-yl)methoxy)-2-methylimidazo[1,2-a]quinoline-4-carboxamide]: 3460 nM and 3.4 nM.
The matching figures for `CC[C@@H]1[C@H](F)C(=O)N[C@@H]1COC1=CC=CC2C=C(C(N)=O)n3nc(C)cc3C12` (stereo partly drawn) [Example 62, 10-(((2S,3S,4S)-3-ethyl-4-fluoro-5-oxopyrrolidin-2-yl)methoxy)-2-methyl-6a,10a-dihydropyrazolo[5,1-a]isoquinoline-5-carboxamide]: 2510 nM and 2.3 nM.
Taken in the same sequence, the figures for `CC[C@@H]1CC(=O)N[C@@H]1COc1nccc2cc(C(N)=O)c3nc(C)nn3c12` [Example 49, 9-(((2S,3R)-3-ethyl-5-oxopyrrolidin-2-yl)methoxy)-2-methyl-[1,2,4]triazolo[1,5-a][1,7]naphthyridine-4-carboxamide] were 2020 nM and 29.1 nM.

For the origin of these results see patent publication US12286428B2 (BRISTOL-MYERS SQUIBB COMPANY, priority 2019, dated 2025).
